Assay results from patent US20220281802A1, “COMPOUNDS, PHARMACEUTICAL COMPOSITIONS, AND METHODS OF THEIR USE IN THE INHIBITION OF INTERACTION BETWEEN IL18 AND IL18R” (Beth Israel Deaconess Medical Center, Inc., priority 2019, published 2022).
Where two headings read alike, the source gives them in different places.

B1: IL18BP: Interleukin-18 Binding Protein, naturally occurring IL18 antagonist, soluble protein with a single Ig domain; positive control (protein, UniProt O95998 31-194, looked up)
Interleukin-18-binding protein: TPVSQTTTAATASVRSTKDPCPSQPPVFPAAKQCPALEVTWPEVEVPLNGTLSLSCVACSRFPNFSILYWLGNGSFIEHLPGRLWEGSTSRERGSTGTQLCKALVLEQLTPALHSTNFSCVLVDPEQVVQRHVVLAQLWAGLRATLPPTQEALPSSHSSPQQQG

Tests used:
[1] = system: IFN-γ gene expression in NK92 cells; details: Kalina et al., J. Immunol. 2000; positive control; cited from earlier work
[2] = system: IFN-γ gene expression in NK92 cells; test: IFN-γ gene expression induction in NK-92 cells (qRT-PCR); type: cell-based; details: 24 hours
Method: IFN-γ Gene Expression Induction in NK-92 Cells
IFN-γ gene and protein expression induction is a standard to measure IL-18 activity in NK92 cells (Kalina et al., J. Immunol. 165:1307-1313, 2000).
NK92 cells were treated with 1 μM concentration of compounds 1, 10, or […]. […] 24 hours after treatment, total RNA was harvested and qRT-PCR was conducted using a previously published protocols (Raof et al., BMC Genomics, 17-20, 2016; Monahan et al., FASEB J., 23:557-564, 2009) to measure the gene expression of IFN-γ.

[3] = system: IL18; test: HEK-Blue IL18 cell reporter assay (SEAP); type: cell-based; details: Phase I; HEK-Blue IL18 cells, co-treated with recombinant human IL18 15 pM-100 pM, 18 hours; FIGS. 1A-1D
Method: HEK-Blue IL18 Cell Reporter Assay
HEK-Blue IL18 Cells (Invivogen California, USA), are a derivative of HEK293 cells that have been stably transfected with IL18Rα/IL18RAP genes and a SEAP reporter gene that is expressed and secreted in specific response to IL18. Cells were grown in […] tissue culture flasks with DMEM culture medium containing 4.5 g/L glucose, 10% (v/v) heat-inactivated fetal bovine serum, 50 μ/mL penicillin, 50 μg/mL streptomycin, 100 μg/mL Normocin and 2 mM L-glutamine at 37° C. in 5% CO2.
Stock concentration of IL18 was 750 μM stored in Tris-HCl buffer at −80° C. For treatment use, compounds were diluted in sterile PBS to 100 times the intended treatment concentration and administered into wells containing 198 μl media at volumes of 2 μl. Total DMSO contents for all vehicles was less than 0.02% prior to treatment, and less than 0.0002% within wells following treatment.
HEK-Blue IL18 cells were transferred from flasks and seeded at 40-50% confluency on 96-well culture plates 6 hours prior to treatment.
Phase I: Cells were treated with compounds at concentrations of […], 7.5 pM, and 1.5 pM, with three replicate wells for each concentration, and six replicate wells with no compound treatment (NT). All wells were then immediately co-treated with recombinant human IL18 at one concentration between 15 pM-100 pM. Following treatments, cells were incubated at 37° C. in 5% CO2 for 18 hours. Cell confluency typically reached 70-80% (˜80,000-100,000 cells per well) by this point, 24 hours after seeding.
To detect SEAP activity, 20 μL supernatant from each well was transferred and mixed with 180 μl alkaline phosphatase detection medium (QUANTi-Blue, InvivoGen, California, USA), in a separate 96-well plate and incubated for 3 hours at room temperature. Supernatant SEAP activity was measured by reading the optical density (OD) at 640 nm using a spectrophotometer. OD values were standardized to NT mean=1.
Statistical analysis was performed GraphPad Prism (California, USA) software. One-Way analysis of variance (ANOVA) with Dunnett's post-hoc analysis was used to determine significant variation between treatment and control (NT) groups treated only with IL18.

[4] = target: T1, IL18 (Homo sapiens, UniProt Q14116); test: Microscale Thermophoresis (MST) binding; set-up: Recombinant IL18 was fluorescently labelled using the lysine reactive Pico RED NT647 dye
T1 sequence (Q14116 37-193): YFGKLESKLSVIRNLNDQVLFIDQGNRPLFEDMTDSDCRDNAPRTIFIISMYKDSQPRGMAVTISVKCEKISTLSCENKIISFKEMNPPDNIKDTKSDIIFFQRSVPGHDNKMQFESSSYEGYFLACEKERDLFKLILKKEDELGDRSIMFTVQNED
Method: Microscale Thermophoresis
Recombinant IL18 was fluorescently labelled using the lysine reactive Pico RED NT647 dye from NanoTemper Technologies and stored in a PBS buffer containing 0.05% TWEEN (Buffer A). Stock concentration of labelled IL18 was […]. Working concentrations of IL18 were diluted in Buffer A to 10, 40, or 50 nM. Except for the positive control, IL18BP, stock concentration for all compounds, or ligands, was 10-25 mM in 100% DMSO. Ligands were diluted in Buffer A to working concentrations of 50-500 μM. Containing 0.8-2% DMSO. Stock concentration of IL8BP, was 50 μM, stored in 20 mM Tris-HI buffer (pH 8.0) containing 0.4 M Urea and 10% glycerol (Buffer B). Prior to MST experiments being performed 16 preparations of two-fold serial dilutions of ligand in uniform buffer, starting with the working Uigand concentration, were incubated with equal volumes of a fixed concentration of labelled IL8. After 30 minutes incubation at room temperature, 16 Monolith NT. 15 standard capillaries were loaded with 10 μl volumes of each of the ligand/IL18 preparations. Tests described in Results were run at 3700.
Experiments were performed on a Monolith NT.115Pico machine (NanoTemper Technologies GmbH, Germany). Data quality and analysis and graphic rendering were performed using MO.Affinity Analysis v2.3 software from NanoTemper technologies. Evaluation strategy for all analyses was standardized to measure relative change of fluorescence (FNorm %) over a 2.5 second of laser induced temperature shift per capillary. Statistical analysis was performed using NanoTemper's MOControl software. The results of this assay for compounds 1, 10, and 15 are shown in FIGS. 7, 8, 9A, 9B, and […] and Table 3 describes the MST assay conditions.

[5] = system: human saphenous vein segments; test: Cytokine expression in human saphenous vein ex vivo (LPS challenge, multiplex ELISA); type: cell-based; details: LPS 100 ng/ml + compound 10 μM, 18 hours, culture supernatant
Description: Example 2. Cytokine Expression in Human Saphenous Vein Ex Vivo
In this example, a cytokine storm/inflammation common to many vascular conditions has been modeled by challenging human saphenous vein segments with lipopolysaccharide (LPS). Discarded human saphenous vein samples were collected from patients undergoing peripheral bypass grafting.
Samples were subjected to Human (h) TheRPA (Therapeutic Responses Predictor Assay) which is based on ex-vivo treatment of biopsies (explant cultures). The tissues were transferred to the lab within 30 min of their harvesting and cultured in DMEM+10% FBS+1% antibiotic/antimycotic (DMEM plus glucose, glutamine, sodium pyruvate: Gibco 11995-065; Heat Inactivated FBS: Gibco 16140-089; Antibiotic-Antimycotic: Gibco 15240-096) in the presence of vehicle, LPS (100 ng/ml) or LPS (100 ng/ml)+compound 1/compound 10/compound 15 (10 μM). After 18 hours, culture supernatants were collected and kept at −80° C. Cytokine levels in cell culture supernatant were measured by multiplex ELISA (Milliplex map human cytokine/chemokine magnetic bead kit from Millipore).

[6] = system: Primary human saphenous vein endothelial cells (EC); test: Alamar Blue assay for cell toxicity and proliferation, endothelial cells; type: cell-based; details: 10 nM-10 μM, up to 76 hours; FIGS. 3A-3C
Description: Alamar Blue Assay for Cell Toxicity and Proliferation

[7] = system: Primary human saphenous vein smooth muscle (SMC); test: Alamar Blue assay for cell toxicity and proliferation, smooth muscle cells; details: 10 nM-10 μM, up to 72 hours; FIGS. 3D-3F, 4A, 4B
Method: Primary human saphenous vein smooth muscle (SMC) and endothelial cells (EC) were left untreated or treated with inhibitor compounds (10 nM-10 μM) for a period of 3-4 days. Cell proliferation was measured using our previously published Alamar Blue Assay (Monahan et al., FASEB J., 23:557-564, 2009; Yoshida et al., J. Am. Coll. Surg. 213:668-67, 2011).

[8] = target: T1, IL18; details: background statement; read-out: affinity for hIL18; cited from earlier work
[9] = FIG. 6, compound 1 μM, no treatment 1.33±0.85
[10] = labelled IL18, 37.0° C., n 2, Table 3
[11] = FIG. 5, compound 1 μM, no treatment 1.06±0.38

Row | Molecule | IL-18 activity (SEAP reporter) [3] | Kd ([4]; FIGS. 9A-9C) [nM] | Kd [4, 10] [nM] | IL-6 expression [5] | IL-8 expression [5] | TNF expression [5] | further results
1 | C[S+]([O-])c1ccc(-c2nc(-c3ccc(F)cc3)c(-c3ccncc3)[nH]2)cc1 (stereo not drawn) [Compound 1V] | – | – | – | – | – | – | IFN-γ expression in NK92 cells (literature statement) [1]: known inhibitor of IFN-γ expression in NK92 cells
2 | Nc1cccc(Cc2cccc(N)c2)c1 [Compound 1] | significantly reduce IL-18 activity | 60.6 | 60.6 | significantly inhibited | significantly inhibited | significantly inhibited | IFN-γ expression [2, 9]: 0.04±0.02
3 | CC(C)c1ccc(NC(=N)NC(=N)N)cc1 [Compound 15] | significantly reduce IL-18 activity | – | 5640 | – | – | – | toxicity in EC (Alamar Blue) [6]: no toxicity; toxicity in SMC (Alamar Blue) [7]: no toxicity; IFN-γ expression [2, 11]: 0.99±0.38; Kd ([4]; FIG. 9C): 5600 nM
4 | Cc1ccc(Cc2ccc(C)c(N)c2)cc1N [Compound 5] | – | – | – | significantly inhibited | significantly inhibited | significantly inhibited | –
5 | IL-18: Interleukin-18, pro-inflammatory cytokine used as stimulus of IFN-γ expression | – | – | – | – | – | – | IFN-γ expression [2, 11]: 5.52±3.43; IFN-γ expression [2, 9]: 7.9±7.23
6 | O=C1c2nn[nH]c2C(=O)c2nn[nH]c21 [Compound 10] | significantly reduce IL-18 activity | 2.27 | 2.27 | significantly inhibited | significantly inhibited | significantly inhibited | toxicity in SMC (Alamar Blue) [7]: no toxicity
7 | B1 | significantly reduce IL-18 activity | 1.85 | 1.85 | – | – | – | Kd [8]: 0.4 nM
